Measurements taken from ChEMBL document CHEMBL1201862, “PubChem BioAssay data set” (2004).
Active and inactive are the calls of the source.

Columns and labels:
[1] = molecular target: T1, Low molecular weight phosphotyrosine protein phosphatase (Homo sapiens, UniProt P24666); experiment: inhibition of human LMPTP enzyme activity – biochemical, absorbance, pNPP substrate, LMPTP-A isoform, set 2, orthogonal assay, dose response (AID 743308); type: functional
T1 sequence (P24666 whole entry): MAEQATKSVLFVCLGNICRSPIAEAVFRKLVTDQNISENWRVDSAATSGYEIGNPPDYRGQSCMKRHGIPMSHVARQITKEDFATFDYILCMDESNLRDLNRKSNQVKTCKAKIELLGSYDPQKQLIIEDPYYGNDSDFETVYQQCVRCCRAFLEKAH

[2] = molecular target: T1, Low molecular weight phosphotyrosine protein phosphatase; experiment: inhibition of LMPTP-A enzymatic activity – biochemical, OMFP substrate, fluorescence intensity, set 2, dose response (AID 743307); type: functional
[3] = molecular target: ELAV-like protein 1 (Homo sapiens, UniProt Q15717); experiment: Identify HuR specific inhibitors.; type: functional
ELAV-like protein 1, sequence (Q15717 whole entry): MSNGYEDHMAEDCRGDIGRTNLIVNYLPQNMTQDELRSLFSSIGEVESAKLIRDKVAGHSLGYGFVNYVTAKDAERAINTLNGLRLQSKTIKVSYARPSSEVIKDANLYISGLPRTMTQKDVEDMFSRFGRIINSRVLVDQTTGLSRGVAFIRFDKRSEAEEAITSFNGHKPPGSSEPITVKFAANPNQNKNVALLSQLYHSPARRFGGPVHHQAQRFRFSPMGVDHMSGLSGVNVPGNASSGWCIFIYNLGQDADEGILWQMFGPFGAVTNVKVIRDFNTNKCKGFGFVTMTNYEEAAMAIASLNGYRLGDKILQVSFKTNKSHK

[4] = molecular target: Protein Tat (Human immunodeficiency virus type 1 group M subtype B (isolate HXB2)(HIV-1), UniProt P04608); type: functional;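 also: tat binding to TAR RNA read out by fluorescence polarization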
Protein Tat, sequence (P04608 whole entry): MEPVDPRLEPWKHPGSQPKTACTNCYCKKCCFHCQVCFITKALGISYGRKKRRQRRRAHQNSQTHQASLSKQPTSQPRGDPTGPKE

[5] = molecular target: T2, Rac GTPase-activating protein 1 (Homo sapiens, UniProt Q9H0H5); experiment: blockers of MgcRacGAP-driven Rac1 GTP hydrolysis – biochemical, ADP Hunter fluorescence, primary and confirmatory, confirmation (AID 624330); type: functional
T2 sequence (Q9H0H5 whole entry): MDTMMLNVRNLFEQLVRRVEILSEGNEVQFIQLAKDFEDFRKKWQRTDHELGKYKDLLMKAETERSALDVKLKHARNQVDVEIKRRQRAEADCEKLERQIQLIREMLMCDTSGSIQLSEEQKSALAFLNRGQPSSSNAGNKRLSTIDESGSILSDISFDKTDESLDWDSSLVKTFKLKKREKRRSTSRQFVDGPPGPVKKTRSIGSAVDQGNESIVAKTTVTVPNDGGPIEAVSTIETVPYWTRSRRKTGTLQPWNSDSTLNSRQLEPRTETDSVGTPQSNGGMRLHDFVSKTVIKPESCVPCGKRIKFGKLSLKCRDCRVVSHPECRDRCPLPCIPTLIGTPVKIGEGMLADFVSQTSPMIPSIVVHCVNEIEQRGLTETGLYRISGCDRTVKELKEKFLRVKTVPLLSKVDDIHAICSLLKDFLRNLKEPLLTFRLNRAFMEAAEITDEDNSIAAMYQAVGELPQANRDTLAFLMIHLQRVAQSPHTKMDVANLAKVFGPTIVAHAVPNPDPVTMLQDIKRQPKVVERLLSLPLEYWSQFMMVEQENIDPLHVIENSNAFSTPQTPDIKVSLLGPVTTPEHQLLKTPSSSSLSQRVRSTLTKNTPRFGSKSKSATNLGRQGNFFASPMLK

[6] = molecular target: T3, Caspase-6 (Homo sapiens, UniProt P55212); experiment: inhibition of CASP6 peptide cleavage – biochemical, VEID-R110 fluorescence, cherry-pick, dose response (AID 720632)
T3 sequence (P55212 whole entry): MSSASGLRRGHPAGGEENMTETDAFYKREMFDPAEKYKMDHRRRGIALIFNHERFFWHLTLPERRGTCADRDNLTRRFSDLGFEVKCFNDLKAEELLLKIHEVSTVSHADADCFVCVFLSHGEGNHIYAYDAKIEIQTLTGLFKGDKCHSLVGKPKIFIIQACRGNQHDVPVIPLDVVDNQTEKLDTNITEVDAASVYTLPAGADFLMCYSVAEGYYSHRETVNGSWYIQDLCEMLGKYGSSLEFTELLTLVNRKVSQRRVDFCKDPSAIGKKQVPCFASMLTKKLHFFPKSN

[7] = growth inhibition of PfATP4-mutant resistant parasites – NITD609-resistant line, SYBR Green, dry powder, dose response (AID 1159571); type: functional, cell-based;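 also: parasites synchronized at ring stage by sorbitol before testing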
[8] = P. falciparum Dd2 growth inhibitors, dose response, SYBR Green, cherry-picked samples (AID 1159567); type: functional, cell-based
[9] = growth inhibition of yeast DHODH-expressing 3D7 parasites – SYBR Green, dry powder samples, dose response (AID 1159570); type: functional, cell-based;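 also: parasite growth measured after 72 hours of compound exposure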
[10] = Dd2 malaria parasite growth inhibition potency – SYBR Green, dry powder samples, dose response (AID 1159566); type: functional, cell-based;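 also: potency for growth inhibition with lower SYBR green DNA signal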
[11] = toxicity to human HepG2 hepatoma cells – cell-based, plate reader, dry powder samples, cytotoxicity control, dose response (AID 1159569); type: functional;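 also: inhibitor potency with signal falling toward the positive control level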
[12] = toxicity to human hepatoma HepG2 cells – cell-based, cherry-picked samples, cytotoxicity control, dose response (AID 1159577); type: functional
[13] = viability loss in Vero cells – cytotoxicity control for Vif-APOBEC3G degradation inhibitor project, dose response (AID 1117358); type: functional; conditions: Vero
[14] = HIV-1 Vif–A3G interaction blockers – biochemical, TR-FRET, GST-Vif 1-94, biotin-A3G peptide, dose response retest, primary screen (AID 1117319); type: functional;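 also: TR-FRET signal of purified GST-Vif binding a biotinylated A3G peptide; inhibitors lower the FRET signal by blocking Vif and A3G binding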
[15] = RKO cell viability reduction, dose response, CellTiter-Glo luminescence (AID 1117322); type: functional
[16] = Potency on glucagon-like peptide 1 release, dose-response in NCI-H716 cell line, half maximal inhibitory concentration (AID 1117344); type: functional, cell-based
[17] = CellTiter-Glo luminescence survival assay, SW480 colon tumor line, concentration-response curve, half-maximal inhibitory concentration (AID 1117338); type: functional
[18] = cytotoxicity toward Colo320 cells – cell-based, CellTiter-Glo luminescence, IC50, dose response (AID 1117334); type: functional; conditions: COLO 320
[19] = cytotoxicity toward HCT116 cells – cell-based, CellTiter-Glo luminescence, IC50, dose response (AID 1117332); type: functional; conditions: HCT-116
[20] = HCT116 cell viability decrease, GSK3B pretreatment – CellTiter-Glo, IC50, dose response (AID 1117339); type: functional; conditions: HCT-116
[21] = glucagon-like peptide-1 release potency in STC-1, concentration-response, half-maximal inhibitory concentration in the STC-1 line (AID 1117345); type: functional, cell-based
[22] = cytotoxicity toward HT-29 cells – cell-based, CellTiter-Glo luminescence, IC50, dose response (AID 1117330); type: functional
[23] = SNU-C1 cell viability reduction, dose response, CellTiter-Glo luminescence (AID 1117323); type: functional, cell-based
[24] = Reduced DLD-1 viability, concentration-response, CellTiter-Glo luminescence (AID 1117352); type: functional
[25] = Counterscreen for activators of the function of SWI/SNF related, matrix associated, actin dependent regulator of chromatin, subfamily a, member 2 (SMARCA2, BRM): Luminescence-based cell-based high throughput dose response assay to identify non-selective compounds using the VP16 reporter assay.; type: functional
[26] = viability loss in HepG2 hepatoma cells – cell-based, ATP luminescence, cherry-pick, activator set 2, cytotoxicity control, dose response (AID 1053143); type: functional
[27] = molecular target: T4, DNA repair protein RAD52 homolog (Homo sapiens, UniProt P43351); type: functional, biochemical
T4 sequence (P43351 whole entry): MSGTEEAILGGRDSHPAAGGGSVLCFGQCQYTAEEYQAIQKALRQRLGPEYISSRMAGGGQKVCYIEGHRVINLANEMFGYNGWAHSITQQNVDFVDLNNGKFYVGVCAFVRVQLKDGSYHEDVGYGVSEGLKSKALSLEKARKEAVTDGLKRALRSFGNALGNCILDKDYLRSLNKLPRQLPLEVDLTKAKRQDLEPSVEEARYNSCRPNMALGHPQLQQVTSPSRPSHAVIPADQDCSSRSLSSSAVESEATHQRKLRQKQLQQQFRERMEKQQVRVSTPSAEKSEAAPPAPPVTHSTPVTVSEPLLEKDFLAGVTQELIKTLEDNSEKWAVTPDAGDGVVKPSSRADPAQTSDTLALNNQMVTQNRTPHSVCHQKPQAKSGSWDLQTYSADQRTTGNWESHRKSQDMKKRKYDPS

[28] = molecular target: SWI/SNF-related matrix-associated actin-dependent regulator of chromatin subfamily A member 2 (Homo sapiens, UniProt P51531); experiment: Luminescence-based cell-based high throughput dose response assay to identify activators of the function of SWI/SNF related, matrix associated, actin dependent regulator of chromatin, subfamily a, member 2 (SMARCA2, BRM).; type: functional
SWI/SNF-related matrix-associated actin-dependent regulator of chromatin subfamily A member 2, sequence (P51531 whole entry): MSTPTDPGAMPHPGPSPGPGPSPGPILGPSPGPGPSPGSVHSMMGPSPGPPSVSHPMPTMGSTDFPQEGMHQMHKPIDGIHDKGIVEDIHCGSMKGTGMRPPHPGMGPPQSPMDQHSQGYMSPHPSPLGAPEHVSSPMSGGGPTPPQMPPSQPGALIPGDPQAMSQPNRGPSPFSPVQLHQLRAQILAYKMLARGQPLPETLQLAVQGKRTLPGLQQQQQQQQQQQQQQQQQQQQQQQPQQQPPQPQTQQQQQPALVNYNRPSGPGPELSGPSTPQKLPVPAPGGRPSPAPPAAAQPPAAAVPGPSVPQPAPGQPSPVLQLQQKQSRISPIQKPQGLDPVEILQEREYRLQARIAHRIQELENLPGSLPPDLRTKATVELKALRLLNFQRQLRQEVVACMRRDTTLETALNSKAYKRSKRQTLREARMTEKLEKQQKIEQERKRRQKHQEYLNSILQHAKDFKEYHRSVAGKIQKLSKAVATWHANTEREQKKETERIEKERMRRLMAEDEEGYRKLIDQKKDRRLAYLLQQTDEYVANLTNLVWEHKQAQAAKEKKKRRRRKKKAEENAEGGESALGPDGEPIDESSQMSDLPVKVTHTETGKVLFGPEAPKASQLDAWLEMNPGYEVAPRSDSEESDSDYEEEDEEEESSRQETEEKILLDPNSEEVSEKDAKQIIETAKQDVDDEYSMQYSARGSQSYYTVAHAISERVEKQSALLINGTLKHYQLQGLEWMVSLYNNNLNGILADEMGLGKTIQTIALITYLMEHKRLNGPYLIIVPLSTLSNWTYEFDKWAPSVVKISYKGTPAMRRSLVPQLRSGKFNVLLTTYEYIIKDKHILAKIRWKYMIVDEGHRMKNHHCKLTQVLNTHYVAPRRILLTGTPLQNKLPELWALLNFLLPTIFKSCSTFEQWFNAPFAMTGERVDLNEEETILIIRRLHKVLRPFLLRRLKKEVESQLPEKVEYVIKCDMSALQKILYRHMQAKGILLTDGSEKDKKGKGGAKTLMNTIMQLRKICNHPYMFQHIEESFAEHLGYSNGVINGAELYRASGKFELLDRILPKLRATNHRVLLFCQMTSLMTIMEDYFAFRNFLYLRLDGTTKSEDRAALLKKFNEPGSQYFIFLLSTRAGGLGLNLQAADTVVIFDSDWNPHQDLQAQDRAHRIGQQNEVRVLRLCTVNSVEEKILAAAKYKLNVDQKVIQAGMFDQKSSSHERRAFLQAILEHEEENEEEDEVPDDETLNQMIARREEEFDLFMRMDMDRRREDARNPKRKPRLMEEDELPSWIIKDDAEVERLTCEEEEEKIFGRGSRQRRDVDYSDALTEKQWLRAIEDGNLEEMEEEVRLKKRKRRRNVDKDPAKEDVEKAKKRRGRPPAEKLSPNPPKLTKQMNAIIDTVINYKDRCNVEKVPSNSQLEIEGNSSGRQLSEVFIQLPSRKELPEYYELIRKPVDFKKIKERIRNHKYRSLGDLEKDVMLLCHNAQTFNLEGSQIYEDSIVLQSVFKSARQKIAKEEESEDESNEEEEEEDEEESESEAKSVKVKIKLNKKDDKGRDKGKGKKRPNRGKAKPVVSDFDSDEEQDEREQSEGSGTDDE

[29] = IC50 of insulin release inhibition, rat insulinoma INS-1E line, 5 mM glucose, cell-based (AID 1117331); type: functional
[30] = cells; type: functional, cell-based; conditions: INS-1E
[31] = Trypanosoma cruzi growth suppression in host cells – NIH3T3 host cells, beta-gal luminescence, confirmation (AID 2044); type: functional, cell-based;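 also: intracellular parasites grown in NIH/3T3 mouse fibroblasts as host cells; luminescent beta-galactosidase reporter signal from transgenic T. cruzi replicating inside host cells; inhibitors lower the luminescence signal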
[32] = NIH3T3 cell viability loss – ATP luminescence, mouse fibroblasts, counter-screen, dose response (AID 2010); type: functional, cell-based;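 also: cells exposed to compound for about 90 hours before reading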
[33] = molecular target: Mitogen-activated protein kinase 10 (Homo sapiens, UniProt P53779); experiment: Dose response biochemical screening assay for inhibitors of c-Jun N-Terminal Kinase 3 (JNK3). [Related pubchem assays: 746 ]
Mitogen-activated protein kinase 10, sequence (P53779 whole entry): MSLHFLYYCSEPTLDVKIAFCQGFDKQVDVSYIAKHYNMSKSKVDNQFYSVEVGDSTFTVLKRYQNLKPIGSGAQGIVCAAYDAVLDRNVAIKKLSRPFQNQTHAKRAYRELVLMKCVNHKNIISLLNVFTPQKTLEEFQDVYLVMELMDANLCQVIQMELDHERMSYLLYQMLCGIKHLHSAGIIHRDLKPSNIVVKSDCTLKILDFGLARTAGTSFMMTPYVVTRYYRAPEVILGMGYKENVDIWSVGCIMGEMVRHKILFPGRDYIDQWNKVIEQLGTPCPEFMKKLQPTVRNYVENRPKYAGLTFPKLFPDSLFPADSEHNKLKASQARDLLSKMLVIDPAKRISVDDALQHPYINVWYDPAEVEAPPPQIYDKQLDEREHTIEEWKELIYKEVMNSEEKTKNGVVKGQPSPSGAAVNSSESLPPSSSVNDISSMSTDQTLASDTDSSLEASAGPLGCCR

[34] = viability loss in HepG2 liver cells – cell-based, luminescence, dry powder, set 9, cytotoxicity control, dose response (AID 743358); type: functional

**Q.** What does the source list for `c1ccc(-c2cc(NCCN3CCCC3)c3ccccc3n2)cc1`?
**A.** IC50 [1]: 11.9 µM (active); IC50 [2]: 5.46 µM (active)

**Q.** Which IC50 [3] does the source give for `Cc1ccc(Nc2ccc(N)cc2S(=O)(=O)O)cc1` here?
**A.** Its IC50 is 41 µM (active).

**Q.** What about the IC50 [4] of the same compound?
**A.** Its IC50 is 49.3 µM (inconclusive).

**Q.** What about the IC50 [5] of the same compound?
**A.** Its IC50 is 40.2 µM (active).

**Q.** What about the AC50 [6] of the same compound?
**A.** The AC50 was 13.7 µM (active).

**Q.** With `Cc1ccc(-c2ccc([C@@H]3[C@H](CO)N4CCCCN(S(=O)(=O)c5cccc(C)c5)C[C@@H]34)cc2)cc1` as the compound, how does the AC50 [7] read?
**A.** Its AC50 is 0.87 µM (active).

**Q.** And the AC50 [8]?
**A.** The AC50 was 1.49 µM (active).

**Q.** What about the AC50 [9] of the same compound?
**A.** Its AC50 is 1.15 µM (active).

**Q.** What about the AC50 [10] of the same compound?
**A.** Its AC50 is 0.955 µM (active).

**Q.** And the AC50 [11]?
**A.** The AC50 was 16.4 µM (active).

**Q.** What about the AC50 [12] of the same compound?
**A.** Its AC50 is > 39 µM (inactive).

**Q.** Which CC50 [13] does the source give for `CCOC(=O)c1c(NC(=O)C(C)N2CCN(C(=O)c3ccco3)CC2)sc2c1CCCC2` (configuration not stated) here?
**A.** Its CC50 is 21.6 µM (active).

**Q.** What about the IC50 [14] of the same compound?
**A.** Its IC50 is > 100 µM (active).

**Q.** Which results are given for `CCCCC(CC)COC(=O)CC(C(=O)OCC(CC)CCCC)S(=O)(=O)O` (configuration not stated) [DOCUSATE]?
**A.** IC50 [15]: > 20 µM (inactive); IC50 [16]: 22.9 µM (inactive); IC50 [17]: > 20 µM (inactive); IC50 [18]: > 20 µM (inactive); IC50 [19]: > 20 µM (inactive); IC50 [20]: 16.6 µM (inactive); IC50 [21]: > 40 µM (inactive); IC50 [22]: > 20 µM (inactive); IC50 [23]: > 20 µM (inactive); IC50 [24]: > 20 µM (inactive)

**Q.** With `Nc1c2ccccc2nc2ccccc12` as the compound, how does the IC50 [15] read?
**A.** The IC50 was > 6.67 µM (inactive).

**Q.** And the EC50 [25]?
**A.** Its EC50 is > 91.1 µM (inactive).

**Q.** What about the AC50 [26] of the same compound?
**A.** The AC50 was 6.26 µM (active).

**Q.** And the IC50 [17]?
**A.** Its IC50 is > 20 µM (inactive).

**Q.** What about the AC50 [27] of the same compound?
**A.** The AC50 was 2.48 µM (active).

**Q.** And the IC50 [18]?
**A.** Its IC50 is 8.81 µM (inactive).

**Q.** What about the IC50 [19] of the same compound?
**A.** The IC50 was 2.02 µM (active).

**Q.** And the IC50 [20]?
**A.** The IC50 was 3.87 µM (active).

**Q.** And the EC50 [28]?
**A.** The EC50 was > 3.37 µM (active).

**Q.** What about the IC50 [22] of the same compound?
**A.** The IC50 was > 20 µM (inactive).

**Q.** What about the IC50 [23] of the same compound?
**A.** The IC50 was > 6.67 µM (inactive).

**Q.** What about the IC50 [29] of the same compound?
**A.** Its IC50 is 18.5 µM (inactive).

**Q.** And the IC50 [30]?
**A.** The IC50 was > 33.3 µM (inactive).

**Q.** And the EC50 [31]?
**A.** Its EC50 is 1.16 µM (active).

**Q.** What about the EC50 [32] of the same compound?
**A.** The EC50 was 10.6 µM (active).

**Q.** What about the IC50 [24] of the same compound?
**A.** Its IC50 is > 20 µM (inactive).

**Q.** Which IC50 [33] does the source give for `O=C1C(c2ccncc2)=C(O)c2ccccc21` here?
**A.** Its IC50 is 6.69 µM (active).

**Q.** With `COc1cccc(NC(=O)N2CC[C@@H]3[C@@H](CO)N(C)c4ccc(-c5cccc(F)c5)cc4[C@@H]32)c1` as the compound, how does the AC50 [34] read?
**A.** Its AC50 is > 52 µM (inactive).
